Molecular target: T1, 5-HT transporter (Rattus norvegicus, UniProt P31652)
T1 construct: from tissue; host or cells: rat brain synaptosomes (P2 fraction) from medulla and pons
Assay: 5-HT uptake inhibition in rat brain synaptosomes (medulla and pons), [3H]-5-HT
Format: biochemical
Description: a) Method for Determining Noradrenalin and 5-HT Uptake Inhibition:
Synaptosomes from rat brain regions are freshly isolated for in vitro studies, as described in the publication “The isolation of nerve endings from brain” by E. G. Gray and V. P. Whittaker, J. Anatomy 96, pages 79-88, 1962. The corresponding literature description is hereby introduced as a reference and is deemed to be part of the disclosure.
The tissue (hypothalamus for the determination of noradrenalin uptake inhibition and medulla and pons for the determination of 5-HT uptake inhibition) is homogenised in ice-cooled 0.32 M sucrose (100 mg of tissue/1 mL) in a glass homogeniser with Teflon pestle using five complete up and down strokes at 840 revolutions/minute.
The homogenate is centrifuged at 4° C. for 10 minutes at 1000 g. After subsequent centrifugation at 17000 g for 55 minutes, the synaptosomes (P2 fraction) are obtained, which are resuspended in 0.32 M […] (0.5 mL/100 mg of original weight).
The particular uptake is measured in a 96-well microtitre plate. The volume is 250 μl and the incubation proceeds at room temperature (approx. 20-25° C.) under an O2 atmosphere.
The incubation time is 7.5 minutes for [^3H]-NA and 5 minutes for [^3H]-5-HT. The 96 samples are then filtered through a Unifilter GF/B® microtitre plate (Packard) and washed with 200 mL of incubated buffer using a “Brabdel MPXRI-96T Cell-Harvester”. The Unifilter GF/B plate is dried for 1 hour at 55° C. The plate is then sealed with a Back Seal® (Packard) and 35 μl of scintillation fluid are added per well (Ultima Gold®, Packard). After sealing with a top Seal® (Packard) and establishing an equilibrium (around 5 hours), radioactivity is determined in a “Trilux 1450 Microbeta” (Wallac).
The quantity of protein used in the above determination corresponds to the values known from the literature, as for example described in “Protein measurement with the folin phenol reagent”, Lowry et al., J. Biol. Chem., 193, 265-275, 1951.
A detailed description of the method may additionally be found in the literature, for example in M. Ch. Frink, H.-H. Hennies, W. Engelberger, M. Haurand and B. Wilffert (1996) Arzneim.-Forsch./Drug Res. 46 (III), 11, 1029-1036.

T1 sequence (P31652 whole entry): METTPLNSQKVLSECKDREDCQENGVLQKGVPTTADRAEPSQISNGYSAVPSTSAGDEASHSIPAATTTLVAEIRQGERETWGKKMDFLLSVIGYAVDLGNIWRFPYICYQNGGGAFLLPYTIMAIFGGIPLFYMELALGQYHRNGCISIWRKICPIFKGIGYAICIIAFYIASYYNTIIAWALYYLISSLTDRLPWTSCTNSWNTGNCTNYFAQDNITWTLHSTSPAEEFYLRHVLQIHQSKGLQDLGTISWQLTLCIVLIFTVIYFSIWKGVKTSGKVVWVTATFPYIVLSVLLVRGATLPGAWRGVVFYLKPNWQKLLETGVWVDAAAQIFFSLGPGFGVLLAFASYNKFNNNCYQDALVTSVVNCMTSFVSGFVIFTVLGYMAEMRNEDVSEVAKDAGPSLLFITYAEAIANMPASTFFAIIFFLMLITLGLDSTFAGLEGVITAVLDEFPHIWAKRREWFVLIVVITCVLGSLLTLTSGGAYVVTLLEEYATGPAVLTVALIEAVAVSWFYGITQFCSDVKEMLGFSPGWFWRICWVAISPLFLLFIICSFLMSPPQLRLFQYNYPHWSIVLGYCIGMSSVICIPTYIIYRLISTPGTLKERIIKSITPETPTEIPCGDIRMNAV

SMILES | inhibition at 10 µM [%]
N#Cc1ccccc1CN1CC2(CCN(C(=O)CC3(CC(=O)O)CCCC3)CC2)OC1=O [Example 71, (1-{2-[3-(2-cyanobenzyl)-2-oxo-1-oxa-3,8-diazaspiro[4.5]dec-8-yl]-2-oxoethyl}cyclopentyl)acetic acid] | 62
O=C(O)CC1(CC(=O)N2CCC3(CC2)CN(Cc2ccc(F)c(F)c2)C(=O)O3)CCCC1 [Example 72, (1-{2-[3-(3,4-difluorobenzyl)-2-oxo-1-oxa-3,8-diazaspiro[4.5]dec-8-yl]-2-oxoethyl}cyclopentyl)acetic acid] | 45
CC(CC(=O)O)CC(=O)N1CCC2(CC1)CN(Cc1ccccc1-c1ccccc1)C(=O)O2 (stereo not shown) [Example 73, 5-(3-biphenyl-2-ylmethyl-2-oxo-1-oxa-3,8-diazaspiro[4.5]dec-8-yl)-3-methyl-5-oxopentanoic acid] | 57
COc1ccc([N+](=O)[O-])cc1CN1CC2(CCN(CC(=O)Nc3cc(C)nn3C)CC2)OC1=O [Example 76, N-(2,5-dimethyl-2H-pyrazol-3-yl)-2-[3-(2-methoxy-5-nitrobenzyl)-2-oxo-1-oxa-3,8-diazaspiro[4.5]dec-8-yl]acetamide] | 51
O=C1OC2(CCN(Cc3ccc(OC(F)(F)F)cc3)CC2)CN1Cc1ccc(F)c(F)c1 [Example 81, 3-(3,4-difluorobenzyl)-8-(4-trifluoromethoxybenzyl)-1-oxa-3,8-diazaspiro[4.5]decan-2-one] | 75
N#Cc1ccccc1CN1CC2(CCN(Cc3ccc(Cl)cc3)CC2)OC1=O [Example 82, 2-[8-(4-chlorobenzyl)-2-oxo-1-oxa-3,8-diazaspiro[4.5]dec-3-ylmethyl]benzonitrile] | 56
Cc1ccc2ccccc2c1CN1CCC2(CC1)CN(Cc1ccccc1C(F)(F)F)C(=O)O2 [Example 83, 8-(2-methylnaphthalen-1-ylmethyl)-3-(2-trifluoromethylbenzyl)-1-oxa-3,8-diazaspiro[4.5]decan-2-one] | 41
N#Cc1ccccc1CN1CC2(CCN(Cc3csc4ccc(Cl)cc34)CC2)OC1=O [Example 84, 2-[8-(5-chlorobenzo[b]thiophen-3-ylmethyl)-2-oxo-1-oxa-3,8-diazaspiro[4.5]dec-3-ylmethyl]benzonitrile] | 62
O=C(CN1CCC2(CC1)CN(Cc1ccc(SC(F)(F)F)cc1)C(=O)O2)Nc1csc(C(F)(F)F)c1-c1ccccc1 [Example 85, 2-[2-oxo-3-(4-trifluoromethylsulfanylbenzyl)-1-oxa-3,8-diazaspiro[4.5]dec-8-yl]-N-(4-phenyl-5-trifluoromethylthiophen-3-yl)acetamide] | 90
COc1ccc([N+](=O)[O-])cc1CN1CC2(CCN(Cc3cccc([N+](=O)[O-])c3)CC2)OC1=O [Example 88, 3-(2-methoxy-5-nitrobenzyl)-8-(3-nitrobenzyl)-1-oxa-3,8-diazaspiro[4.5]decan-2-one] | 70
Cc1ccc(CN2CC3(CCN(Cc4ccc5ccccc5c4Br)CC3)OC2=O)cc1 [Example 90, 8-(1-bromonaphthalen-2-ylmethyl)-3-(4-methylbenzyl)-1-oxa-3,8-diazaspiro[4.5]decan-2-one] | 77
CC(=O)Nc1ccc(C(=O)N2CCC3(CC2)CN(Cc2cccc(C#N)c2)C(=O)O3)cc1 [Example 91, N-{4-[3-(3-cyanobenzyl)-2-oxo-1-oxa-3,8-diazaspiro[4.5]decane-8-carbonyl]phenyl}acetamide] | 68
CCSc1ncccc1C(=O)N1CCC2(CC1)CN(Cc1cc(C)cc(C)c1)C(=O)O2 [Example 99, 3-(3,5-dimethylbenzyl)-8-(2-ethylsulfanylpyridine-3-carbonyl)-1-oxa-3,8-diazaspiro[4.5]decan-2-one] | 73
Cc1cc(C)cc(CN2CC3(CCN(C(=O)c4c(-c5ccccc5Cl)noc4C)CC3)OC2=O)c1 [Example 101, 8-[3-(2-chlorophenyl)-5-methylisoxazole-4-carbonyl]-3-(3,5-dimethylbenzyl)-1-oxa-3,8-diazaspiro[4.5]decan-2-one] | 84
CCc1ccc(CS(=O)(=O)N2CCC3(CC2)CN(Cc2cccc(Br)c2)C(=O)O3)cc1 [Example 102, 3-(3-bromobenzyl)-8-(4-ethylbenzylsulfonyl)-1-oxa-3,8-diazaspiro[4.5]decan-2-one] | 67
CCCCOc1ccc(CS(=O)(=O)N2CCC3(CC2)CN(Cc2cc(C)cc(C)c2)C(=O)O3)cc1 [Example 103, 8-(4-butoxybenzylsulfonyl)-3-(3,5-dimethylbenzyl)-1-oxa-3,8-diazaspiro[4.5]decan-2-one] | 83

SMILES | inhibition at 10 µM [%]
CC(=O)OC(C(=O)N1CCC2(CC1)CN(Cc1cc(C)cc(C)c1)C(=O)O2)c1ccccc1 (stereo not shown) [Example 105, acetic acid 2-[3-(3,5-dimethylbenzyl)-2-oxo-1-oxa-3,8-diazaspiro[4.5]dec-8-yl]-2-oxo-1-phenylethyl ester] | 74
N#Cc1ccc(CN2CC3(CCN(C(=O)C4CC4c4ccccc4)CC3)OC2=O)cc1 (stereo not shown) [Example 106, 4-[2-oxo-8-(2-phenylcyclopropanecarbonyl)-1-oxa-3,8-diazaspiro[4.5]dec-3-ylmethyl]benzonitrile] | 63
COc1ccc(OC)c(CS(=O)(=O)N2CCC3(CC2)CN(Cc2cc(C)cc(C)c2)C(=O)O3)c1 [Example 107, 8-(2,5-dimethoxybenzylsulfonyl)-3-(3,5-dimethylbenzyl)-1-oxa-3,8-diazaspiro[4.5]decan-2-one] | 76
Cc1cc(C)cc(CN2CC3(CCN(C(=O)c4ccccc4Cl)CC3)OC2=O)c1 [Example 108, 8-(2-chlorobenzoyl)-3-(3,5-dimethylbenzyl)-1-oxa-3,8-diazaspiro[4.5]decan-2-one] | 77
Cc1ccc(CS(=O)(=O)NC(Cc2ccccc2)C(=O)N2CCC3(CC2)CN(Cc2cccc(C#N)c2)C(=O)O3)cc1 (stereo not shown) [Example 110, N-{1-benzyl-2-[3-(3-cyanobenzyl)-2-oxo-1-oxa-3,8-diazaspiro[4.5]dec-8-yl]-2-oxoethyl}-4-methylbenzylsulfonamide] | 64
CCSc1ncccc1C(=O)N1CCC2(CC1)CN(Cc1cccc(OC)c1)C(=O)O2 [Example 111, 8-(2-ethylsulfanylpyridine-3-carbonyl)-3-(3-methoxybenzyl)-1-oxa-3,8-diazaspiro[4.5]decan-2-one] | 71
COc1cccc(CN2CC3(CCN(C(=O)c4ccc(OC)cc4OC)CC3)OC2=O)c1 [Example 112, 8-(2,4-dimethoxybenzoyl)-3-(3-methoxybenzyl)-1-oxa-3,8-diazaspiro[4.5]decan-2-one] | 66
COc1cccc(CC(=O)N2CCC3(CC2)CN(Cc2cc(C)cc(C)c2)C(=O)O3)c1 [Example 113, 3-(3,5-dimethylbenzyl)-8-[2-(3-methoxyphenyl)acetyl]-1-oxa-3,8-diazaspiro[4.5]decan-2-one] | 68
COc1cc(C)c(CS(=O)(=O)N2CCC3(CC2)CN(Cc2cc(C)cc(C)c2)C(=O)O3)c(C)c1C [Example 114, 3-(3,5-dimethylbenzyl)-8-(4-methoxy-2,3,6-trimethylbenzylsulfonyl)-1-oxa-3,8-diazaspiro[4.5]decan-2-one] | 73
N#Cc1ccc(CN2CC3(CCN(C(=O)c4ccc(-c5ccccc5)cc4)CC3)OC2=O)cc1 [Example 115, 4-[8-(biphenyl-4-carbonyl)-2-oxo-1-oxa-3,8-diazaspiro[4.5]dec-3-ylmethyl]benzonitrile] | 84
Cc1cc(C)cc(CN2CC3(CCN(S(=O)(=O)Cc4ccccc4Cl)CC3)OC2=O)c1 [Example 116, 8-(2-chlorobenzylsulfonyl)-3-(3,5-dimethylbenzyl)-1-oxa-3,8-diazaspiro[4.5]decan-2-one] | 76
Cc1cc(C)cc(CN2CC3(CCN(C(=O)c4ccc5nonc5c4)CC3)OC2=O)c1 [Example 117, 8-(benzo[1,2,5]oxadiazole-5-carbonyl)-3-(3,5-dimethylbenzyl)-1-oxa-3,8-diazaspiro[4.5]decan-2-one] | 73
O=C1OC2(CCN(C(=O)c3ccc(-c4ccccc4)cc3)CC2)CN1Cc1ccc(I)cc1 [Example 118, 8-(biphenyl-4-carbonyl)-3-(4-iodobenzyl)-1-oxa-3,8-diazaspiro[4.5]decan-2-one] | 66
Cc1cc(C)cc(CN2CC3(CCN(C(=O)c4ccccn4)CC3)OC2=O)c1 [Example 119, 3-(3,5-dimethylbenzyl)-8-(pyridine-2-carbonyl)-1-oxa-3,8-diazaspiro[4.5]decan-2-one] | 67
O=C1OC2(CCN(C(=O)c3ccc(Cl)nc3)CC2)CN1Cc1ccc2ccccc2c1 [Example 120, 8-(6-chloropyridine-3-carbonyl)-3-naphthalen-2-ylmethyl-1-oxa-3,8-diazaspiro[4.5]decan-2-one] | 66

Source: patent publication US8153795B2, “Substituted 1-oxa-3,8-diazaspiro[4.5]-decan-2-one-compounds and the use thereof for producing drugs” (Gruenenthal GmbH, priority 2005, dated 2012)
